# Results: US12428370B2, “Haloallylamine dual amine oxidase inhibitors” (Syntara Limited, priority 2020, dated 2025)
# Structures can show the parent of a compound that is named as a salt.
# Target: T1, Rat Brain Tissue MAO-B (Rattus norvegicus, UniProt P19643)
# T1 construct: Brain tissue was homogenized in ice-cold Tris buffer; from tissue; host or cells: brain of Sprague Dawley rats (mitochondrial extract)
# T1 sequence (P19643 1-520): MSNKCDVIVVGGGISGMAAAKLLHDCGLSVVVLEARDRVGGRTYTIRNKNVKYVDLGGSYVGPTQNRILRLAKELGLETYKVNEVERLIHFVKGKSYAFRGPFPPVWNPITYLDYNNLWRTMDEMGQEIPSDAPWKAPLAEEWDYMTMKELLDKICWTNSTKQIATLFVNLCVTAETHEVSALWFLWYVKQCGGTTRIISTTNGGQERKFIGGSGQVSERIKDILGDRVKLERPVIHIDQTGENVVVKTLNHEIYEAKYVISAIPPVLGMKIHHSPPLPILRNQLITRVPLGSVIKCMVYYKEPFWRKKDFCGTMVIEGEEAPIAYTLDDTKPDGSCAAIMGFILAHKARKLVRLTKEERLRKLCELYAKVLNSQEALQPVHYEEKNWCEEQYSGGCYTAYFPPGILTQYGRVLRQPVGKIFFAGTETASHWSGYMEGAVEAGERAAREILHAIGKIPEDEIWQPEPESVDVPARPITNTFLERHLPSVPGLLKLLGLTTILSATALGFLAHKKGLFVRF
# Test: Rat brain tissue MAO-B activity after oral administration
# Assay type: in vivo, Sprague Dawley rats
# Settings: single oral dose 0.6 mg/kg, Sprague Dawley rat brain tissue, FIG. 3
# Description: Sprague Dawley rats were orally administered the compound under study and sacrificed at various time points and gonadal fat and brain tissue collected.
# Brain tissue was homogenized in ice-cold Tris buffer (10 mM Tris·HCl, 0.5 mM EDTA, sucrose 250 mM, pH 7.4). Homogenate was then centrifuged at 4,000 rpm for 3 minutes at 4° C. The resultant supernatant was transferred and centrifuged again at 4,000 rpm for 3 minutes at 4° C. Process repeated one last time, this time at 10,000 rpm for 8 minutes. Supernatant discarded and the resultant pellet containing the mitochondrial extract re-suspended in 0.1 M sodium phosphate buffer solution (1:3 ratio). MAO-B activity was determined by using a specific MAO-A inhibitor (e.g. clorgyline) and a SSAO/VAP-1 inhibitor (e.g. semicarbazide) to establish the high signal. Low signal was established as for the adipose tissue assay.
# Activity of the treated samples was analyzed using the fluorometric method described in EXAMPLE 9 for SSAO/VAP-1 activity and EXAMPLE 10 for MAO-B.
smiles,measurement,value
"NC/C(=C\F)C1Cc2ccccc2O1 (single isomer, unassigned; (-)) [PXS-5131, (−)-(E)-2-(2,3-Dihydrobenzofuran-2-Yl)-3-Fluoroprop-2-En-1-Amine Hydrochloride]",duration of inhibition of MAO-B enzyme activity,greater than 24 hours
